Here are results for five molecules from article PMC3085955 (Journal of medicinal chemistry, 2011).

The test system of data set [1] is T. gondii YFP. Put plainly: T. gondii replication assay in two successive infection cycles. To be noted: exposure to less than 1 μM in the first cycle. It is filed as cell-based, Toxoplasma gondii.
Data set [2] deals with cultured mammalian cells. To be noted: cited from earlier work.
Data set [3] deals with T. gondii RHΔhxgprt. It is filed as cell-based, Toxoplasma gondii. To be noted: for apicoplast replication: 1st infection cycle, T. gondii RHΔhxgprt.

As to `CC[C@H]1OC(=O)[C@H](C)[C@@H](O[C@H]2C[C@@](C)(OC)[C@@H](O)[C@H](C)O2)[C@H](C)[C@@H](O[C@@H]2O[C@H](C)C[C@H](N(C)C)[C@H]2O)[C@](C)(O)C[C@@H](C)CN(C)[C@H](C)[C@@H](O)[C@]1(C)O` [Compound 3, Azithromycin], the “reduction in parasite titers by the end of the second infection cycle” value in data set [1] was above 2 fold. In data set [2], the “concentration showing toxicity against cultured mammalian cells” value is around 100 µM. Also, in data set [3], the apicoplast replication entry was “significantly impaired”.
As for `CC[C@H]1OC(=O)[C@H](C)[C@@H](O[C@H]2C[C@@](C)(OC)[C@@H](O)[C@H](C)O2)[C@H](C)[C@@H](O[C@@H]2O[C@H](C)C[C@H](N(C)C)[C@H]2O)[C@](C)(O)C[C@@H](C)CN(Cc2ccccc2)[C@H](C)[C@@H](O)[C@]1(C)O` [Compound 11, N-benzyl-azithromycin], the apicoplast replication entry in data set [3] is reported as “significantly impaired”.
Still for that read-out and setting: the same measure for `CC[C@H]1OC(=O)[C@H](C)[C@@H](O[C@H]2C[C@@](C)(OC)[C@@H](O)[C@H](C)O2)[C@H](C)[C@@H](O[C@@H]2O[C@H](C)C[C@H](N(C)C)[C@H]2O)[C@](C)(O)C[C@@H](C)CN(CCCc2ccccc2)[C@H](C)[C@@H](O)[C@]1(C)O` [Compound 30, N-phenylpropyl-azithromycin]: “significantly impaired”.
As for `CCc1nc(N)nc(N)c1-c1ccc(Cl)cc1` [Pyrimethamine], the “ratio of plastid to nuclear DNA” value in data set [3] (either infection cycle) is “did not affect”.
Take Spiramycin: the apicoplast replication entry in data set [3] is recorded as “significantly impaired”.
